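Interpolation was linear, between the two tested concentrations surrounding the appropriate level; five concentrations were tested over 48 hours in 96-well plates. TGI: total growth inhibition.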
Assays:
Assay in all cases: NCI tumour cell line growth inhibition, 48 h
HCC-2998 colon = tested on: HCC-2998 colon
SK-MEL-2 melanoma = tested on: SK-MEL-2 melanoma
MOLT-4 leukemia = tested on: MOLT-4 leukemia
SK-MEL-28 melanoma = tested on: SK-MEL-28 melanoma
SK-OV-3 ovarian = tested on: SK-OV-3 ovarian
RXF 393 renal = tested on: RXF 393 renal
HL-60(TB) leukemia = tested on: HL-60(TB) leukemia
SW-620 colon = tested on: SW-620 colon
SNB-75 CNS = tested on: SNB-75 CNS
NCI-H522 lung = tested on: NCI-H522 lung
HCT-116 colon = tested on: HCT-116 colon
CCRF-CEM leukemia = tested on: CCRF-CEM leukemia
786-0 renal = tested on: 786-0 renal
MALME-3M melanoma = tested on: MALME-3M melanoma
LOX IMVI melanoma = tested on: LOX IMVI melanoma
U251 CNS = tested on: U251 CNS
RXF-631 renal = tested on: RXF-631 renal
OVCAR-4 ovarian = tested on: OVCAR-4 ovarian
NCI-H226 lung = tested on: NCI-H226 lung
TK-10 renal = tested on: TK-10 renal
SNB-19 CNS = tested on: SNB-19 CNS
HT29 colon = tested on: HT29 colon
A549 NSCLC = tested on: A549 NSCLC
KM20L2 colon = tested on: KM20L2 colon
ACHN renal = tested on: ACHN renal
SN12C renal = tested on: SN12C renal
K-562 leukemia = tested on: K-562 leukemia
UACC-257 melanoma = tested on: UACC-257 melanoma
HCT-15 colon = tested on: HCT-15 colon
DMS 273 small cell lung = tested on: DMS 273 small cell lung
OVCAR-8 ovarian = tested on: OVCAR-8 ovarian
KM12 colon = tested on: KM12 colon
M14 melanoma = tested on: M14 melanoma
M19-MEL melanoma = tested on: M19-MEL melanoma
LXFL 529 NSCLC = tested on: LXFL 529 NSCLC
SF-268 CNS = tested on: SF-268 CNS
HOP-62 NSCLC = tested on: HOP-62 NSCLC
NCI-H23 lung = tested on: NCI-H23 lung
COLO 205 colon = tested on: COLO 205 colon
OVCAR-3 ovarian = tested on: OVCAR-3 ovarian
IGROV1 ovarian = tested on: IGROV1 ovarian
SK-MEL-5 melanoma = tested on: SK-MEL-5 melanoma
EKVX NSCLC = tested on: EKVX NSCLC
NCI-H460 lung = tested on: NCI-H460 lung
DMS 114 small cell lung = tested on: DMS 114 small cell lung
SR leukemia = tested on: SR leukemia
SF-295 CNS = tested on: SF-295 CNS
A498 renal = tested on: A498 renal
UACC-62 melanoma = tested on: UACC-62 melanoma
OVCAR-5 ovarian = tested on: OVCAR-5 ovarian
HOP-18 NSCLC = tested on: HOP-18 NSCLC
UO-31 renal = tested on: UO-31 renal
CAKI-1 renal = tested on: CAKI-1 renal

`COc1ccc2cccc(C(=N)c3ccc(C)c4c3CCC4)c2c1` was tested, and the TGI (HCC-2998 colon) was 23.1 µM, the TGI (SK-MEL-2 melanoma) was 24.4 µM and the TGI (MOLT-4 leukemia) was 26.1 µM. For the same compound, the TGI (SK-MEL-28 melanoma) was 26.9 µM, the TGI (SK-OV-3 ovarian) was 29.9 µM and the TGI (RXF 393 renal) was 26.3 µM. The TGI (HL-60(TB) leukemia) was 9.12 µM, the TGI (SW-620 colon) was 18.7 µM and the TGI (SNB-75 CNS) was 27.2 µM. It also gave a TGI (NCI-H522 lung) of 10.1 µM, a TGI (HCT-116 colon) of 15.9 µM and a TGI (CCRF-CEM leukemia) of 26.6 µM. It also gave a TGI (786-0 renal) of 21.9 µM, a TGI (MALME-3M melanoma) of 18.1 µM and a TGI (LOX IMVI melanoma) of 25.5 µM. For the same compound, the TGI (U251 CNS) was 21.4 µM, the TGI (RXF-631 renal) was 4.37 µM and the TGI (OVCAR-4 ovarian) was 24.9 µM. For the same compound, the TGI (NCI-H226 lung) was 26.9 µM, the TGI (TK-10 renal) was 24.2 µM and the TGI (SNB-19 CNS) was 23.3 µM. It also gave a TGI (HT29 colon) of 15 µM, a TGI (A549 NSCLC) of 26.8 µM and a TGI (KM20L2 colon) of 19.3 µM. The TGI (ACHN renal) was 21.7 µM, the TGI (SN12C renal) was 24.5 µM and the TGI (K-562 leukemia) was 10.8 µM. For the same compound, the TGI (UACC-257 melanoma) was 18.2 µM, the TGI (HCT-15 colon) was 20.6 µM and the TGI (DMS 273 small cell lung) was 21.2 µM. For the same compound, the TGI (OVCAR-8 ovarian) was 24 µM, the TGI (KM12 colon) was 22.9 µM and the TGI (M14 melanoma) was 18.6 µM. For the same compound, the TGI (M19-MEL melanoma) was 21.5 µM, the TGI (LXFL 529 NSCLC) was 16.5 µM and the TGI (SF-268 CNS) was 31.8 µM. For the same compound, the TGI (HOP-62 NSCLC) was 20 µM, the TGI (NCI-H23 lung) was 19.6 µM and the TGI (COLO 205 colon) was 25.9 µM. It also gave a TGI (OVCAR-3 ovarian) of 17.6 µM, a TGI (IGROV1 ovarian) of 19.2 µM and a TGI (SK-MEL-5 melanoma) of 14.8 µM. It also gave a TGI (EKVX NSCLC) of 30.1 µM, a TGI (NCI-H460 lung) of 16.7 µM and a TGI (DMS 114 small cell lung) of 19.9 µM. The TGI (SR leukemia) was 9.03 µM, the TGI (SF-295 CNS) was 17.7 µM and the TGI (A498 renal) was 5.87 µM. It also gave a TGI (UACC-62 melanoma) of 15.8 µM, a TGI (OVCAR-5 ovarian) of 18.9 µM and a TGI (HOP-18 NSCLC) of 15.5 µM. It also gave a TGI (UO-31 renal) of 16.2 µM and a TGI (CAKI-1 renal) of 16.1 µM.
